# Results: patent US7928236B2, “Fluorescent amino acid derivatives” (National University Corporation Okayama University, priority 2005, dated 2011)
# Legend:
# [1] = Photostability; assay type: physicochemical; details: water, 1.2×10^−6M, room temperature, continuous 468 nm irradiation for an hour
# Method: Boc-badAla-OH prepared in Example 2 was dissolved in water in a concentration of 1.2×10^−6M, and photostability was examined at room temperature using ISA “FluoroMax-2” analyzer, irradiating a beam of 468 nm excitation wavelength continuously for an hour. As a result, […] an hour after the irradiation, it held 95% fluorescence intensity of that at the start of the experiment (FIG. 6). […] On the other hand, values of commercial products BODIPY and FITC shown on the literature, obtained by dissolving them respectively in TBS buffer for measurement on FluoroMax, were respectively 88% and 85%.
# [2] = Fluorescence lifetime; assay type: physicochemical; details: 50 mM PBS (pH7.0), 3×10^−4M, room temperature, excitation 415 nm, measured at 500 nm
# Method: Boc-badAla-OH prepared in Example 2 was dissolved in 50 mM PBS (pH7.0) in a concentration of 3×10^−4M, and fluorescence intensity was measured at room temperature at 500 nm, setting the excitation wavelength at 415 nm of blue laser from a simple-type beam system, using Hamamatsu “microchannel photomultiplier tube” supplied by Hamamatsu Photonics K.K. which was cooled to −30° C., and then fluorescence lifetime was measured.
# As a result, the obtained fluorescence lifetime was τ=16.6 nanoseconds.
# While the lifetime of BODIPY, a commercial product, was 5.7 nanoseconds (MeOH) on the literature, and that of FITC was 4.1 nanoseconds (0.01M NaOH) on the literature. The other primary spectroscopic properties of fluorescent probes were listed on the homepage of IOM GmbH (see, www.iom-berlin.de).
# [3] = Absorption spectrum; assay type: physicochemical; details: in ethanol, water and ethanol/water (6:4), 2.3×10^−5M, room temperature
# Method: Boc-badAla-OH prepared in Example 2 was dissolved respectively in ethanol, water and a mixture of ethanol and water (6:4) in a concentration of 2.3×10^−5M, and their absorption spectra were measured at room temperature using JASCO “V560” supplied by JASCO Corporation.
# [4] = TBS buffer, measured on FluoroMax, values on the literature; cited from earlier work
# [5] = 0.01M NaOH, on the literature; cited from earlier work
Compound,fluorescence intensity held relative to start of experiment [1] [%],fluorescence lifetime τ [2] [nanoseconds],maximum absorption wavelength [3],photostability (fluorescence intensity held) [4] [%],fluorescence lifetime [5] [nanoseconds]
CC(C)(C)OC(=O)NC(Cc1ccc2[nH]c3cc4ccccc4cc3c(=O)c2c1)C(=O)O (centres unmarked) [Boc-badAla-OH],95,16.6,around 460 nm,–,–
O=C1OC2(c3ccc(O)cc3Oc3cc(O)ccc32)c2ccc(N=C=S)cc21 [FITC],–,–,–,85,4.1
